Assay results taken from US7517874B2 (priority 2007, dated 2009).
Like-named read-outs stand apart in the source and are kept apart here.

How the values were obtained:
[1] = target: human CB1 receptor (hCB1) (Homo sapiens, UniProt P21554); assay: cell-based; type: cell-based; conditions: for +/− HCB1: agonist or inverse agonist at hCB1
Method in brief: (§1)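 Agonism or inverse agonism was assessed as change in intracellular cAMP in CHO-K1 cells expressing human CB1 or rat CB2 (genomic DNA, pcDNA3.1).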

rat CB2 receptor (rCB2) = target: T1, rat CB2 receptor (rCB2) (Rattus norvegicus, UniProt Q9QZN9); assay: cell-based; type: cell-based; conditions: for +/− RCB2: agonist or inverse agonist at rCB2
T1 sequence (Q9QZN9 1-360): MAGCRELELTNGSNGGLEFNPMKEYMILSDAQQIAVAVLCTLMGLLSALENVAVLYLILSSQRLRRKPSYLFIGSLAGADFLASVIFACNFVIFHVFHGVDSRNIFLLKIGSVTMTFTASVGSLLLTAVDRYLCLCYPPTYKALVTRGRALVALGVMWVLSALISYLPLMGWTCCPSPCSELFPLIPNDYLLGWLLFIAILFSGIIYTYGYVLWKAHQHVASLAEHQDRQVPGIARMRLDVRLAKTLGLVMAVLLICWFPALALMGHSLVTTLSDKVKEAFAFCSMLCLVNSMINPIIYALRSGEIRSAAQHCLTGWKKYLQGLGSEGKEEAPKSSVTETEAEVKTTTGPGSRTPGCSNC
Method in brief: as §1

[2] = groups >100 nM-10 μM and >10 μM, cAMP, CHO-K1 hCB1, read-out: EC50 HCB1

Sequence of human CB1 receptor (hCB1) (P21554 whole entry): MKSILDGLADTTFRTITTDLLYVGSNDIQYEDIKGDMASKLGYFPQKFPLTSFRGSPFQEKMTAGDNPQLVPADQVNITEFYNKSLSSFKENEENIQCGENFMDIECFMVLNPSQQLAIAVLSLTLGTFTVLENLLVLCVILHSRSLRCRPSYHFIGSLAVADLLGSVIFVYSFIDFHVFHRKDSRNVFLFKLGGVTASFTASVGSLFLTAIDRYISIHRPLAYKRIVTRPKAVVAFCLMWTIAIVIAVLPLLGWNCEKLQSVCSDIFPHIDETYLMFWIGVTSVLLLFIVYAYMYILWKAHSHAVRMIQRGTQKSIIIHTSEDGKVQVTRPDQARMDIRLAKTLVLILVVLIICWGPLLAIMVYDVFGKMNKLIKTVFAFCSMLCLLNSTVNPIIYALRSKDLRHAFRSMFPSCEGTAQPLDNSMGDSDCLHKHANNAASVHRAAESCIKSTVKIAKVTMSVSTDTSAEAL

| SMILES | EC50 [1] | +/− RCB2 (rat CB2 receptor (rCB2)) | other results |
| --- | --- | --- | --- |
| CNC(=O)[C@@H](NC(=O)c1nc(-c2ccccc2)n2c1CN(S(C)(=O)=O)CC2)C(C)(C)C [Compound 92, (S)-N-(3,3-dimethyl-1-(methylamino)-1-oxobutan-2-yl)-7-(methylsulfonyl)-3-phenyl-5,6,7,8-tetrahydroimidazo[1,5-a]pyrazine-1-carboxamide] | > 10000 nM | − |  |
| CNC(=O)[C@H](Cc1cscn1)NC(=O)c1nc(-c2cc(F)c(F)cc2F)n2c1CN(C)CCC2 [Compound 592, (S)-8-methyl-N-(1-(methylamino)-1-oxo-3-(thiazol-4-yl)propan-2-yl)-3-(2,4,5-trifluorophenyl)-6,7,8,9-tetrahydro-5H-imidazo[1,5-a][1,4]diazepine-1-carboxamide] | > 10000 nM |  | EC50 (rat CB2 receptor (rCB2)): > 10000 nM |
| CNC(=O)[C@@H](NC(=O)c1nc(-c2ccc(-c3ccccc3)c(F)c2)n2c1CN(C)CCC2)C(C)(C)C [Compound 419, (S)-N-(3,3-dimethyl-1-(methylamino)-1-oxobutan-2-yl)-3-(2-fluorobiphenyl-4-yl)-8-methyl-6,7,8,9-tetrahydro-5H-imidazo[1,5-a][1,4]diazepine-1-carboxamide] | > 10000 nM |  | EC50 (rat CB2 receptor (rCB2)): > 10000 nM |
| CNC(=O)[C@@H]1CCCN1C(=O)c1nc(-c2ccccc2)n2c1CN(C)CCC2 [Compound 603, (S)-N-methyl-1-(8-methyl-3-phenyl-6,7,8,9-tetrahydro-5H-imidazo[1,5-a][1,4]diazepine-1-carbonyl)pyrrolidine-2-carboxamide] | > 10000 nM |  | EC50 (rat CB2 receptor (rCB2)): > 10000 nM |
| CC(C)CCNC(=O)c1nc(-c2ccc(Cl)cc2)n2c1CN(CC(C)C)CC2 [Compound 157, 3-(4-chlorophenyl)-7-isobutyl-N-isopentyl-5,6,7,8-tetrahydroimidazo[1,5-a]pyrazine-1-carboxamide] | > 10000 nM | − |  |
| CNC(=O)[C@@H](NC(=O)c1nc(-c2ccc(OC(F)(F)F)cc2)n2c1CN(C)CCC2)C(C)(C)C [Compound 339, (S)-N-(3,3-dimethyl-1-(methylamino)-1-oxobutan-2-yl)-8-methyl-3-(4-(trifluoromethoxy)phenyl)-6,7,8,9-tetrahydro-5H-imidazo[1,5-a][1,4]diazepine-1-carboxamide] | > 10000 nM | − |  |
| CNC(=O)[C@@H](NC(=O)c1nc(-c2ccccc2)n2c1CN(C)CCC2)c1ccccc1 [Compound 543, (S)-8-methyl-N-(2-(methylamino)-2-oxo-1-phenylethyl)-3-phenyl-6,7,8,9-tetrahydro-5H-imidazo[1,5-a][1,4]diazepine-1-carboxamide] | > 10000 nM | + |  |
| CNC(=O)[C@@H](NC(=O)c1nc(-c2ccccc2)n2c1CN(S(=O)(=O)c1ccccc1[N+](=O)[O-])CC2)C(C)(C)C [Compound 97, (S)-N-(3,3-dimethyl-1-(methylamino)-1-oxobutan-2-yl)-7-(2-nitrophenylsulfonyl)-3-phenyl-5,6,7,8-tetrahydroimidazo[1,5-a]pyrazine-1-carboxamide] | > 10000 nM | − |  |
| CCS(=O)(=O)N1CCn2c(-c3ccccc3)nc(C(=O)NCC3CCOCC3)c2C1 [Compound 117, 7-(ethylsulfonyl)-3-phenyl-N-((tetrahydro-2H-pyran-4-yl)methyl)-5,6,7,8-tetrahydroimidazo[1,5-a]pyrazine-1-carboxamide] |  | − | EC50 [1, 2]: > 10000 nM |
| CNC(=O)[C@@H](NC(=O)c1nc(-c2ccc(C(F)(F)F)cc2)n2c1CN(C)CCC2)C(C)(C)C [Compound 330, (S)-N-(3,3-dimethyl-1-(methylamino)-1-oxobutan-2-yl)-8-methyl-3-(4-(trifluoromethyl)phenyl)-6,7,8,9-tetrahydro-5H-imidazo[1,5-a][1,4]diazepine-1-carboxamide] | > 10000 nM | − |  |
| CNC(=O)[C@@H](NC(=O)c1nc(/C=C/CN(C)C)n2c1CN(C)CCC2)C(C)(C)C [Compound 513, (S,E)-N-(3,3-dimethyl-1-(methylamino)-1-oxobutan-2-yl)-3-(3-(dimethylamino)prop-1-enyl)-8-methyl-6,7,8,9-tetrahydro-5H-imidazo[1,5-a][1,4]diazepine-1-carboxamide] | > 10000 nM | − |  |
| CC(C)(C)OC(=O)N1CCn2c(-c3ccccc3)nc(C(=O)Nc3ccccc3)c2C1 [Compound 32, tert-butyl 3-phenyl-1-(phenylcarbamoyl)-5,6-dihydroimidazo[1,5-a]pyrazine-7(8H)-carboxylate] | > 10000 nM | − |  |
| CCN1CCn2c(-c3ccccc3)nc(C(=O)N[C@H](C)C3CCCCC3)c2C1 [Compound 164, (R)-N-(1-cyclohexylethyl)-7-ethyl-3-phenyl-5,6,7,8-tetrahydroimidazo[1,5-a]pyrazine-1-carboxamide] | > 10000 nM | − |  |
| CN1CCCn2c(-c3ccc(Cl)cc3F)nc(C(=O)N[C@H](C(=O)N(C)C)C(C)(C)C)c2C1 [Compound 556, (S)-3-(4-chloro-2-fluorophenyl)-N-(1-(dimethylamino)-3,3-dimethyl-1-oxobutan-2-yl)-8-methyl-6,7,8,9-tetrahydro-5H-imidazo[1,5-a][1,4]diazepine-1-carboxamide] |  |  | +/− HCB1 [1]: +; EC50 (rat CB2 receptor (rCB2)): > 10000 nM |
| CC(C)(C)C(=O)N1CCn2c(-c3ccccc3)nc(C(=O)NC3C4(C)CCC(C4)C3(C)C)c2C1 (centres unmarked) [Compound 123, 3-phenyl-7-pivaloyl-N-(1,3,3-trimethylbicyclo[2.2.1]heptan-2-yl)-5,6,7,8-tetrahydroimidazo[1,5-a]pyrazine-1-carboxamide] | > 10000 nM | − |  |
| CNC(=O)[C@@H](NC(=O)c1nc(-c2ccc(C)c(Cl)c2)n2c1CN(C)CCC2)C(C)(C)C [Compound 334, (S)-3-(3-chloro-4-methylphenyl)-N-(3,3-dimethyl-1-(methylamino)-1-oxobutan-2-yl)-8-methyl-6,7,8,9-tetrahydro-5H-imidazo[1,5-a][1,4]diazepine-1-carboxamide] | > 10000 nM |  | EC50 (rat CB2 receptor (rCB2)): > 10000 nM |
| CNC(=O)[C@@H](NC(=O)c1nc(-c2ccc(C(=O)N3CCN(C)CC3)cc2)n2c1CN(C)CCC2)C(C)(C)C [Compound 392, (S)-N-(3,3-dimethyl-1-(methylamino)-1-oxobutan-2-yl)-8-methyl-3-(4-(4-methylpiperazin-1-carbonyl)phenyl)-6,7,8,9-tetrahydro-5H-imidazo[1,5-a][1,4]diazepine-1-carboxamide] |  |  | EC50 [1, 2]: > 10000 nM; EC50 (rat CB2 receptor (rCB2); groups >100 nM-10 μM and >10 μM, cAMP, CHO-K1 rCB2, read-out: EC50 RCB2): > 10000 nM |
| CC(C)(C)OC(=O)N1CCn2c(-c3ccccc3)nc(C(=O)NN3CCCCC3)c2C1 [Compound 35, tert-butyl 3-phenyl-1-(piperidin-1-ylcarbamoyl)-5,6-dihydroimidazo[1,5-a]pyrazine-7(8H)-carboxylate] |  | − | EC50 [1, 2]: > 10000 nM |
| O=C(NCC1CCOCC1)c1nc(-c2ccccc2)n2c1CN(CCO)CC2 [Compound 169, 7-(2-hydroxyethyl)-3-phenyl-N-((tetrahydro-2H-pyran-4-yl)methyl)-5,6,7,8-tetrahydroimidazo[1,5-a]pyrazine-1-carboxamide] |  | − | EC50 [1, 2]: > 10000 nM |
| CNC(=O)[C@@H](NC(=O)c1nc(-c2ccccc2)n2c1CN(CCO)CC2)C(C)(C)C [Compound 153, (S)-N-(3,3-dimethyl-1-(methylamino)-1-oxobutan-2-yl)-7-(2-hydroxyethyl)-3-phenyl-5,6,7,8-tetrahydroimidazo[1,5-a]pyrazine-1-carboxamide] | > 10000 nM | − |  |
| Cc1noc([C@@H](NC(=O)c2nc(-c3ccccc3)n3c2CN(C(=O)OC(C)(C)C)CCC3)C(C)(C)C)n1 [Compound 517, (S)-tert-butyl 1-(2,2-dimethyl-1-(3-methyl-1,2,4-oxadiazol-5-yl)propylcarbamoyl)-3-phenyl-6,7-dihydro-5H-imidazo[1,5-a][1,4]diazepine-8(9H)-carboxylate] |  | − | EC50 [1, 2]: > 10000 nM |
| CN1CCCn2c(-c3ccc(Cl)cc3F)nc(C(=O)N[C@H](C(N)=O)C(C)(C)C)c2C1 [Compound 573, (S)-N-(1-amino-3,3-dimethyl-1-oxobutan-2-yl)-3-(4-chloro-2-fluorophenyl)-8-methyl-6,7,8,9-tetrahydro-5H-imidazo[1,5-a][1,4]diazepine-1-carboxamide] |  | + | +/− HCB1 [1]: + |
| CC(C)CN1CCn2c(-c3ccccc3)nc(C(=O)N3CCOCC3)c2C1 [Compound 70, (7-isobutyl-3-phenyl-5,6,7,8-tetrahydroimidazo[1,5-a]pyrazin-1-yl)(morpholino)methanone] |  | − | EC50 [1, 2]: > 10000 nM |
| Cc1noc([C@@H](NC(=O)c2nc(-c3ccccc3)n3c2CN(C(C)C)CCC3)C(C)(C)C)n1 [Compound 525, (S)-N-(2,2-dimethyl-1-(3-methyl-1,2,4-oxadiazol-5-yl)propyl)-8-isopropyl-3-phenyl-6,7,8,9-tetrahydro-5H-imidazo[1,5-a][1,4]diazepine-1-carboxamide] | > 10000 nM | − |  |
| CC(C)C[C@H](NC(=O)c1nc(-c2cc(Cl)ccc2F)n2c1CN(C)CCC2)C(N)=O [Compound 569, (S)-N-(1-amino-4-methyl-1-oxopentan-2-yl)-3-(5-chloro-2-fluorophenyl)-8-methyl-6,7,8,9-tetrahydro-5H-imidazo[1,5-a][1,4]diazepine-1-carboxamide] |  | + | +/− HCB1 [1]: + |
